Laboratory results: patent US20250145665A1, “MACROCYCLIC PEPTIDES USEFUL AS MODULATORS OF TNF ALPHA” (Bristol-Myers Squibb Company, priority 2023, published 2025)
Where two headings read alike, the source gives them in different places. Starred links: 1 amine or outer side, 2 acyl side, 3 side chain; linkers in the order of their positions; H or OH if unused. Positions of bridges follow the written chain, without caps; N, C: chain ends. Non-standard residues stand in square brackets, D forms with d. Residues, ends and D or L forms follow the SMILES beside them. *: point of attachment. Bip(4'-NHCO-C6H4-3-CH2COOH) = N[C@@H](Cc1ccc(-c2ccc(NC(=O)c3cccc(CC(=O)O)c3)cc2)cc1)C(=O)O; X17 = O=C(Nc1cccc(-c2ccc(C[C@H](N[*:1])C(=O)[*:2])cc2)c1)c1coc2ccccc12; Bip(4'-NH) = O=C([C@H](Cc1ccc(-c2ccc(N[*:3])cc2)cc1)N[*:1])[*:2]; dArg(ω-(3-HO-benzyl)) = N=C(NCCC[C@@H](N)C(=O)O)NCc1cccc(O)c1; Bip(4'-COOH) = N[C@@H](Cc1ccc(-c2ccc(C(=O)O)cc2)cc1)C(=O)O; Bip(4'-NHAc) = CC(=O)Nc1ccc(-c2ccc(C[C@H](N)C(=O)O)cc2)cc1; Indole3carbonyl(1-CH2COOH) = O=C(O)Cn1cc(C(=O)*)c2ccccc21; Ala(imidazol-2-yl) = N[C@@H](Cc1ncc[nH]1)C(=O)O; dArg(ω-Bn) = N=C(NCCC[C@@H](N)C(=O)O)NCc1ccccc1; Ala(morpholin-4-yl) = N[C@@H](CN1CCOCC1)C(=O)O; Bip = N[C@@H](Cc1ccc(-c2ccccc2)cc1)C(=O)O; Phe(4-NH2) = Nc1ccc(C[C@H](N)C(=O)O)cc1; Ala(2-furyl) = N[C@@H](Cc1ccco1)C(=O)O; Tic = O=C(O)[C@@H]1Cc2ccccc2CN1; 2Thi = N[C@@H](Cc1cccs1)C(=O)O; Cha = N[C@@H](CC1CCCCC1)C(=O)O; Chg = N[C@H](C(=O)O)C1CCCCC1; Sar = CNCC(=O)O

Target: TNFα (Homo sapiens, UniProt P01375)
Sequence (P01375 77-233 limits assumed): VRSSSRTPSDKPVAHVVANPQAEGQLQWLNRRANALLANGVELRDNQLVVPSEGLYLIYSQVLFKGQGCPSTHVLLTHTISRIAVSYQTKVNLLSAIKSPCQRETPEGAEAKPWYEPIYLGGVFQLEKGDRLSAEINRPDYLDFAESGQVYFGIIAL
Assay: TNF-Induced HEK-Blue Assay
Assay type: cell-based
[1] = HEK-Blue-CD40L cells, NF-kB-driven secreted alkaline phosphatase reporter, TNFα 0.5 ng/ml, 18 h, read-out: TNF induced HEK-Blue assay IC50 value

| IC50 [1] [nM] | SMILES | IC50 [nM] |
| --- | --- | --- |
| < 50 | CC(=O)Nc1ccc(-c2ccc(C[C@@H]3NC(=O)[C@H](Cc4ccc(-c5ccc(C(=O)O)cc5)cc4)NC(=O)[C@H](CN4CCOCC4)NC(=O)CSC[C@@H](C(=O)NCC(N)=O)NC(=O)[C@H](CC(C)C)NC(=O)[C@H](Cc4cnc[nH]4)NC(=O)[C@H](C(C)C)NC(=O)[C@@H]4CCCN4C(=O)[C@H](C(C)C)NC(=O)[C@@H](CCCNC(=N)N)NC(=O)[C@H](CC(=O)O)NC(=O)[C@H](Cc4ccco4)NC(=O)CN(C)C3=O)cc2)cc1 [Example 520] ({CH2CO}-[Ala(morpholin-4-yl)][Bip(4'-COOH)][Bip(4'-NHAc)][Sar][Ala(2-furyl)]D[dR]VPVHLCG-NH2; thioether N-13) | – |
| 50 to 200 | CC(=O)Nc1ccc(-c2ccc(C[C@@H]3NC(=O)[C@H](Cc4ccc(-c5ccccc5)cc4)NC(=O)[C@H](CC4CCCCC4)NC(=O)CSC[C@@H](C(=O)NCC(N)=O)NC(=O)[C@H](CC(C)C)NC(=O)[C@H](Cc4cnc[nH]4)NC(=O)[C@H](C4CCCCC4)NC(=O)[C@@H]4CCCN4C(=O)[C@H](CC(N)=O)NC(=O)[C@@H](CCCNC(=N)N)NC(=O)[C@H](CC(=O)O)NC(=O)[C@H](Cc4cnc[nH]4)NC(=O)CN(C)C3=O)cc2)cc1 [Example 301] ({CH2CO}-[Cha][Bip][Bip(4'-NHAc)][Sar]HD[dR]NP[Chg]HLCG-NH2; thioether N-13) | – |
| 200 to 2000 | CC(C)C[C@@H]1NC(=O)[C@H](Cc2ccc(O)cc2)NC(=O)[C@H](C(C)C)NC(=O)[C@@H]2CCCN2C(=O)[C@H](Cc2ccc(N)cc2)NC(=O)[C@H](CCCNC(=N)N)NC(=O)[C@H](CC(=O)O)NC(=O)[C@@H]2CCCN2C(=O)CN(C)C(=O)[C@H](Cc2ccc(-c3ccccc3)cc2)NC(=O)[C@H](Cc2ccc(-c3ccccc3)cc2)NC(=O)[C@H](CN2CCOCC2)NC(=O)CSC[C@@H](C(=O)NCC(N)=O)NC1=O [Example 113] ({CH2CO}-[Ala(morpholin-4-yl)][Bip][Bip][Sar]PDR[Phe(4-NH2)]PVYLCG-NH2; thioether N-13) | – |
| 50 to 200 | CC(C)C[C@@H]1NC(=O)[C@H](CCCNC(=N)N)NC(=O)[C@H](C(C)C)NC(=O)[C@@H]2CCCN2C(=O)[C@H](Cc2ccc(O)cc2)NC(=O)[C@H](CCCNC(=N)N)NC(=O)[C@H](CC(=O)O)NC(=O)[C@@H]2CCCN2C(=O)CN(C)C(=O)[C@H](Cc2ccc(-c3ccccc3)cc2)NC(=O)[C@H](Cc2ccc(-c3ccccc3)cc2)NC(=O)[C@H](CN2CCOCC2)NC(=O)CSC[C@@H](C(=O)NCC(N)=O)NC1=O [Example 56] ({CH2CO}-[Ala(morpholin-4-yl)][Bip][Bip][Sar]PDRYPVRLCG-NH2; thioether N-13) | – |
| < 50 | CC(=O)Nc1ccc(-c2ccc(C[C@@H]3NC(=O)[C@H](Cc4ccc(-c5ccccc5)cc4)NC(=O)[C@H](CN4CCOCC4)NC(=O)CSC[C@@H](C(=O)NCC(N)=O)NC(=O)[C@H](CC(C)C)NC(=O)[C@H](Cc4ncc[nH]4)NC(=O)[C@H](C(C)C)NC(=O)[C@@H]4CCCN4C(=O)[C@H](C(C)C)NC(=O)[C@@H](CCCNC(=N)N)NC(=O)[C@H](CC(=O)O)NC(=O)[C@H](Cc4cccs4)NC(=O)CN(C)C3=O)cc2)cc1 [Example 461] ({CH2CO}-[Ala(morpholin-4-yl)][Bip][Bip(4'-NHAc)][Sar][2Thi]D[dR]VPV[Ala(imidazol-2-yl)]LCG-NH2; thioether N-13) | – |
| 50 to 200 | CC(=O)Nc1ccc(-c2ccc(C[C@@H]3NC(=O)[C@H](Cc4ccc(-c5ccccc5)cc4)NC(=O)[C@H](CC4CCCCC4)NC(=O)CSC[C@@H](C(=O)NCC(N)=O)NC(=O)[C@H](CC(C)C)NC(=O)[C@H](Cc4ccc(O)cc4)NC(=O)[C@H](C4CCCCC4)NC(=O)[C@@H]4CCCN4C(=O)[C@H](C(C)C)NC(=O)[C@@H](CCCNC(=N)N)NC(=O)[C@H](CC(=O)O)NC(=O)[C@@H]4CCCN4C(=O)CN(C)C3=O)cc2)cc1 [Example 310] ({CH2CO}-[Cha][Bip][Bip(4'-NHAc)][Sar]PD[dR]VP[Chg]YLCG-NH2; thioether N-13) | – |
| 50 to 200 | CC(=O)Nc1ccc(-c2ccc(C[C@@H]3NC(=O)[C@H](Cc4ccc(-c5ccccc5)cc4)NC(=O)[C@H](CN4CCOCC4)NC(=O)CSC[C@@H](C(=O)NCC(N)=O)NC(=O)[C@H](CC(C)C)NC(=O)[C@H](Cc4ncc[nH]4)NC(=O)[C@H](C4CCCCC4)NC(=O)[C@@H]4CCCN4C(=O)[C@H](C(C)C)NC(=O)[C@@H](CCCNC(=N)N)NC(=O)[C@H](CC(=O)O)NC(=O)[C@H](Cc4cccs4)NC(=O)CN(C)C3=O)cc2)cc1 [Example 463] ({CH2CO}-[Ala(morpholin-4-yl)][Bip][Bip(4'-NHAc)][Sar][2Thi]D[dR]VP[Chg][Ala(imidazol-2-yl)]LCG-NH2; thioether N-13) | – |
| 50 to 200 | CC[C@H](C)[C@@H]1NC(=O)[C@@H](CCCNC(=N)NCc2cccc(O)c2)NC(=O)[C@H](CC(=O)O)NC(=O)[C@H](Cc2cnc[nH]2)NC(=O)CN(C)C(=O)[C@H](Cc2ccc(-c3ccc(NC(=O)c4cccc(CC(=O)O)c4)cc3)cc2)NC(=O)[C@H](Cc2ccc(-c3ccc(C(=O)O)cc3)cc2)NC(=O)[C@H](CC2CCCCC2)NC(=O)CSC[C@@H](C(=O)NCC(N)=O)NC(=O)[C@H](CC(C)C)NC(=O)[C@H](Cc2ncc[nH]2)NC(=O)[C@H](C(C)C)NC(=O)[C@@H]2Cc3ccccc3CN2C1=O [Example 562] ({CH2CO}-[Cha][Bip(4'-COOH)][Bip(4'-NHCO-C6H4-3-CH2COOH)][Sar]HD[dArg(ω-(3-HO-benzyl))]I[Tic]V[Ala(imidazol-2-yl)]LCG-NH2; thioether N-13) | – |
| – | CC(C)C[C@@H]1NC(=O)[C@H](Cc2ccc(O)cc2)NC(=O)[C@H](C(C)C)NC(=O)[C@@H]2CCCN2C(=O)[C@H](C(C)C)NC(=O)[C@@H](CCCNC(=N)NCc2ccccc2)NC(=O)[C@H](CC(=O)O)NC(=O)[C@@H]2CCCN2C(=O)CN(C)C(=O)[C@H](Cc2ccc(-c3ccc(NC(=O)c4cn(CC(=O)O)c5ccccc45)cc3)cc2)NC(=O)[C@H](Cc2ccc(-c3ccc(C(=O)O)cc3)cc2)NC(=O)[C@H](CC2CCCCC2)NC(=O)CSC[C@@H](C(=O)NCC(N)=O)NC1=O [Example 580] ({CH2CO}-[Cha][Bip(4'-COOH)][Bip(4'-NH)](Indole3carbonyl(1-CH2COOH))[Sar]PD[dArg(ω-Bn)]VPVYLCG-NH2; thioether N-13) | < 50 |
| 200 to 2000 | CC(C)C[C@@H]1NC(=O)[C@H](CCCNC(=N)N)NC(=O)[C@H](C(C)C)NC(=O)CN(C)C(=O)[C@H](C(C)C)NC(=O)[C@@H](CCCNC(=N)N)NC(=O)[C@H](CC(=O)O)NC(=O)[C@H](Cc2ccc(O)cc2)NC(=O)CN(C)C(=O)[C@H](Cc2ccc(-c3ccccc3)cc2)NC(=O)[C@H](Cc2ccc(-c3ccccc3)cc2)NC(=O)[C@H](CN2CCOCC2)NC(=O)CSC[C@@H](C(=O)NCC(N)=O)NC1=O [Example 135] ({CH2CO}-[Ala(morpholin-4-yl)][Bip][Bip][Sar]YD[dR]V[Sar]VRLCG-NH2; thioether N-13) | – |
| < 50 | CC(C)C[C@@H]1NC(=O)[C@H](CCCNC(=N)N)NC(=O)[C@H](C(C)C)NC(=O)[C@@H]2CCCN2C(=O)[C@H](C(C)C)NC(=O)[C@@H](CCCNC(=N)N)NC(=O)[C@H](CC(=O)O)NC(=O)[C@@H]2CCCN2C(=O)CN(C)C(=O)[C@H](Cc2ccc(-c3cccc(NC(=O)c4coc5ccccc45)c3)cc2)NC(=O)[C@H](Cc2ccc(-c3ccccc3)cc2)NC(=O)[C@H](CN2CCOCC2)NC(=O)CSC[C@@H](C(=O)NCC(N)=O)NC1=O [Example 344] ({CH2CO}-[Ala(morpholin-4-yl)][Bip][X17][Sar]PD[dR]VPVRLCG-NH2; thioether N-13) | – |
